{
  "source": "patent US8592581B2",
  "about": "“Trisubstituted purine derivatives” (Cyclacel Limited, priority 2007, dated 2013)",
  "key": {"Mcl-1": {"tested_on": "Mcl-1", "test": "Mcl-1 downregulation in H460 cells by Western blotting", "format": "cell-based", "procedure": "The media was removed and the adherent cells washed with 5 ml PBS. […] Proteins were transferred to nitrocellulose membranes (Schleicher & Schuell, Dassel, Germany) using wet electrophoretic transfer. Membranes were stained with Ponceau S to confirm equal loading before blocking in 5% nonfat milk in PBS with 0.05% Tween 20 (PBSTM) for 2 hours. Membranes were incubated overnight at 4° C. with primary antibody (rabbit polyclonal antibody to Mcl-1, Santa Cruz), diluted 1:1000 in PBSTM. Membranes were washed 2×5 minute followed by 2×10 minute in PBS and 0.05% Tween 20 (PBST) and incubated for 1 hour in PBSTM containing horseradish peroxidase-conjugated secondary antibody. Membranes were washed as before and incubated with enhanced chemiluminescence solution (Amersham) and exposed to X-ray film (Amersham).\nIn a second experiment the effect of additional compounds on Mcl-1 levels was investigated."}, "H358": {"tested_on": "H358", "test": "Alamar blue cytotoxicity assay H358", "format": "cell-based", "conditions": "Homo sapiens, NCI-H358; 72 hours; read-out: cellular cytotoxicity IC50 H358", "procedure": "(§1) In order to determine the cellular potency of the compounds, the cytotoxicity of each compound was determined against a range of cell lines. Standard cytotoxicity methods were performed as follows: cells were seeded in 96-well plates appropriately for their doubling time (2-5000 cells per well) in RPMI or DMEM media containing 10% FCS and incubated overnight at 37° C., 5% CO2. The media was removed and 100 μl fresh media containing increasing concentrations of appropriate compound was added and the cells incubated for 72 hours at 37° C., 5% CO2. A 10% stock of alamar blue (Roche, Lewes, United Kingdom) was prepared in medium and 100 μl added to the cells which were incubated for 2 hours. Absorbance was measured on the Wallac Victor 2 1420 multi-label counter at 544-595 nm."}, "CDK2/cyclin A": {"biological_target": "CDK2/cyclin A (Homo sapiens (Human), UniProt P24941)", "test": "In-vitro recombinant kinase assay CDK2/cyclin A", "format": "biochemical", "conditions": "Table 2; average of duplicate points; read-out: CDK2/Cyclin A Average IC50", "procedure": "(§2) To evaluate the in-vitro kinase potency of the compounds, they were screened against CDK 2 and CDK9. Kinase assays were performed in 96-well plates using recombinant CDK/cyclins generated at Cyclacel. Ltd Dundee, UK. CDK2 and CDK9 assays were performed in a total volume of 25 μl in assay buffer (25 mM b-glycerophosphate, 20 mM MOPS, 5 mM EGTA, 1 mM DTT and 1 mM NaVO3, pH 7.4), into which were added 2-4 μg of active enzyme with appropriate substrates (purified histone H1 for CDK2/cyclin E, and CDK2/cyclin A, biotinyl-Ahx-(YSPTSPS)4 for CDK9/cyclin T1). […] CDK2 reactions were stopped by addition of 25 μl of 75 mM phosphoric acid, followed by filtration through P81 filterplates (Whatman Polyfiltronics, Kent, UK). For CDK9, the reaction was stopped by addition of 25 μl of 75 mM phosphoric acid, then 5 μl of 10 mg/ml avidin was added to each well and further incubated for 2 min followed by filtration as per CDK2 assay. After washing 3 times with 75 mM orthophosphoric acid, plates were dried, scintillant added and incorporated radioactivity measured in a scintillation counter (TopCount, Packard Instruments, Pangbourne, Berks, UK). Compounds for kinase assay were made up as 10 mM stocks in DMSO and diluted into 10% DMSO in assay buffer.\nas §2"}, "MCF7": {"tested_on": "MCF7", "test": "Alamar blue cytotoxicity assay MCF7", "format": "cell-based", "conditions": "Homo sapiens, 72 hours, read-out: cellular cytotoxicity IC50 MCF7", "procedure": "as §1"}, "CYP2C8": {"biological_target": "CYP2C8 (Homo sapiens (Human), UniProt P10632)", "sequence (P10632 whole entry)": "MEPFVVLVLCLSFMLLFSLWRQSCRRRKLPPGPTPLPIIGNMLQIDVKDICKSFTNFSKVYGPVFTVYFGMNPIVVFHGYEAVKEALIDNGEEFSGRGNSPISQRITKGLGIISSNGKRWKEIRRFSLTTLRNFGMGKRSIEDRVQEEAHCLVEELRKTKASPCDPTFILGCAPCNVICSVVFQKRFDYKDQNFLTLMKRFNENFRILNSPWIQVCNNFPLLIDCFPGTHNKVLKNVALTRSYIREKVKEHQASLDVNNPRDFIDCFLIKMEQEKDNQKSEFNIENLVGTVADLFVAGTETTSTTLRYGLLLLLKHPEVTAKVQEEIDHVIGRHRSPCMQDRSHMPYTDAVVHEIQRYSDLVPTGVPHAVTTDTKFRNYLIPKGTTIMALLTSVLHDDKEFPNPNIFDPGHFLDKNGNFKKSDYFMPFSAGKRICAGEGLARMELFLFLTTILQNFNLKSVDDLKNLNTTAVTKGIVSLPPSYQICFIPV", "test": "Cytochrome P450 substrate identification (Bactosomes) CYP2C8", "format": "in vitro ADME", "conditions": "pH 7.4, 5 μM test compound, up to 45 min, read-out: half life in the presence of CYP2C8", "procedure": "(§3) cDNA expressed human CYP450 enzyme preparations co-expressed with human NADPH cytochrome P450 reductase (Bactosomes™) were supplied by Cypex Ltd. Bactosomes™ (final P450 concentration CYP1A2 100 pmol/mL, CYP2C8 50 pmol/mL, CYP2C9 25 pmol/mL, CYP2C19 100 pmol/mL, CYP2D6 50 pmol/mL and CYP3A4 25 pmol/mL), 0.1M phosphate buffer pH7.4 and test compound (final substrate concentration=5 μM; final DMSO concentration=0.25%) were pre-incubated at 37° C. prior to the addition of NADPH (final concentration=1 mM) to initiate the reaction. Incubations were also performed using control bactosomes (no P450 enzymes present) to reveal any non-enzymatic degradation. The final incubation volume was 25 μL. Compounds known to be metabolised specifically by each CYP450 isoform were used as control compounds.\n(§4) Each compound was incubated singly for 0, 5, 15, 30 and 45 min with each CYP isoform. The reactions were stopped by the addition of 50 μL methanol containing internal standard at the appropriate time points. The incubation plates were centrifuged at 2500 rpm for 20 min at 4° C. to precipitate the protein. Following protein precipitation, the sample supernatants were combined in cassettes of up to four compounds and analysed using generic LC-MS/MS conditions.\n(§5) The In peak area ratio (which has been corrected for any loss in the incubations with the control bactosomes) was plotted against time and the gradient of the line determined.\n(§6) The elimination rate constant (k)=(−gradient)"}, "various cell lines": {"tested_on": "various cell lines", "test": "Alamar blue cytotoxicity assay, average over the cell lines of Table 8", "format": "cell-based", "procedure": "as §1"}, "MESSA-Dx5": {"tested_on": "MESSA-Dx5", "test": "Alamar blue cytotoxicity assay MESSA-Dx5", "format": "cell-based", "conditions": "Homo sapiens, MES-SA/Dx5; 72 hours; read-out: cellular cytotoxicity IC50 MESSA-Dx5", "procedure": "as §1"}, "H1650": {"tested_on": "H1650", "test": "Alamar blue cytotoxicity assay H1650", "format": "cell-based", "conditions": "Homo sapiens, NCI-H1650; 72 hours; read-out: cellular cytotoxicity IC50 H1650", "procedure": "as §1"}, "CYP3A4": {"biological_target": "CYP3A4 (Homo sapiens (Human), UniProt P08684)", "sequence (P08684 whole entry)": "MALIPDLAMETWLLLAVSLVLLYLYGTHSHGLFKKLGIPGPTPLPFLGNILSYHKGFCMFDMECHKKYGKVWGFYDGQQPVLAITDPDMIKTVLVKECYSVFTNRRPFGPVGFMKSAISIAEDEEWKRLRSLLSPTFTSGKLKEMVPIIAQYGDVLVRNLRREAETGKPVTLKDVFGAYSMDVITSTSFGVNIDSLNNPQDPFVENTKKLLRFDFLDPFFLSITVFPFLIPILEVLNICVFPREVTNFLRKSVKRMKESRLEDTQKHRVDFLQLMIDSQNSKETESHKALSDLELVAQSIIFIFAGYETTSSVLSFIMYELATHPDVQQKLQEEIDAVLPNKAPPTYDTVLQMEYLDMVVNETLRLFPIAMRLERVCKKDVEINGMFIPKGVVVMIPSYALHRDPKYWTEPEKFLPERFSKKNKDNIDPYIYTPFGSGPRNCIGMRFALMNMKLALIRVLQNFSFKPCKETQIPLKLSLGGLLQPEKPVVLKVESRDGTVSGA", "test": "Cytochrome P450 substrate identification (Bactosomes) CYP3A4", "format": "in vitro ADME", "procedure": "as §3, §4, §5, §6"}, "CYP2C19": {"biological_target": "CYP2C19 (Homo sapiens (Human), UniProt P33261)", "sequence (P33261 whole entry)": "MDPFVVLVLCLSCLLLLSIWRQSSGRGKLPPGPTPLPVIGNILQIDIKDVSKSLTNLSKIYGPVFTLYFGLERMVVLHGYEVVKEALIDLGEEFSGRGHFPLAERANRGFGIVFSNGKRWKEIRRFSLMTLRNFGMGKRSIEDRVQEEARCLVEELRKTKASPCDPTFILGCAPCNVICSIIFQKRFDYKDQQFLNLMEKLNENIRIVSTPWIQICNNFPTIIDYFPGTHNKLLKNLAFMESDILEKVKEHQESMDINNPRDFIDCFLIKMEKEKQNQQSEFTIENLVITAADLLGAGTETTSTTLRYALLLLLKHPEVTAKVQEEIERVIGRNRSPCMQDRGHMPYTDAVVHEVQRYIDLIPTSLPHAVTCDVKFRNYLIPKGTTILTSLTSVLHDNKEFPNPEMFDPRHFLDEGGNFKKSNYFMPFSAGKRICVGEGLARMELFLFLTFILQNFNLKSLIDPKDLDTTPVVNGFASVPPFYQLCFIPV", "test": "Cytochrome P450 substrate identification (Bactosomes) CYP2C19", "format": "in vitro ADME", "conditions": "pH 7.4, 5 μM test compound, up to 45 min, read-out: half life in the presence of CYP2C19", "procedure": "as §3, §4, §5, §6"}},
  "data": [
    {"smiles": "CC[C@H](Nc1nc(NCc2cnc(C)cc2C)c2ncn(C(C)C)c2n1)[C@@H](C)O", "note": "[Compound [1]]", "values": [
      {"measurement": "downregulating the levels of Mcl-1 (in words)", "setting": "Mcl-1; H460 cells, 0.5, 1.5, 4.5 and 13.5 μM, 5 hrs", "value": "most effective compound from this group"},
      {"measurement": "concentration at which significant effects on Mcl-1 levels are observed", "setting": "Mcl-1; H460 cells, 24 hr", "value": 1.5, "unit": "µM"},
      {"measurement": "IC50", "setting": "H358", "value": 180, "unit": "nM"},
      {"measurement": "IC50", "setting": "CDK2/cyclin A", "value": 90, "unit": "nM"},
      {"measurement": "IC50", "setting": "MCF7", "value": 260, "unit": "nM"},
      {"measurement": "half-life at 5 μM", "setting": "CYP2C8", "value": "> 45", "unit": "min"},
      {"measurement": "cytotoxic potency compared with prior art compounds (in words)", "setting": "various cell lines; 21 cell lines, versus [A1], [A2] or [A3]", "value": "significantly more potent"},
      {"measurement": "IC50", "setting": "various cell lines; average over the cell lines of Table 8, read-out: cellular cytotoxicity IC50 Ave", "value": 350, "unit": "nM"},
      {"measurement": "IC50", "setting": "MESSA-Dx5", "value": 1210, "unit": "nM"},
      {"measurement": "IC50", "setting": "H1650", "value": 460, "unit": "nM"},
      {"measurement": "substrate of CYP3A4 (in words)", "setting": "CYP3A4; Bactosomes system", "value": "neither a substrate of nor inhibitor of CYP3A4"},
      {"measurement": "half-life at 5 μM", "setting": "CYP3A4; human, pH 7.4, Bactosomes, 5 μM test compound, up to 45 min, read-out: half life in the presence of CYP3A4", "value": "> 45", "unit": "min"},
      {"measurement": "half-life at 5 μM", "setting": "CYP2C19", "value": "> 45", "unit": "min"}
    ]}
  ]
}
